Laboratory results taken from ChEMBL document CHEMBL5385891, “Design and discovery of novel dipeptide boronic acid ester proteasome inhibitors, an oral slowly-released prodrug for the treatment of multiple myeloma” (Eur J Med Chem, 2023).

How the values were obtained:
[1] = Stability of the compound in stimulated […] fluid at pH 1.2 measured after 4 hrs; assay type: ADME; conditions: simulated gi fluid, pH 1.2, 4 h
RPMI-8226 [2] = experiment: Cytotoxicity against human RPMI-8226 cells assessed as inhibition of cell proliferation incubated for 72 hrs by Cell Titer-Glo luminescence assay; assay type: functional, cell-based; conditions: RPMI-8226, 72 h
[3] = Stability of the compound in stimulated […] fluid at pH 1.2 measured after 2 hrs; assay type: ADME; conditions: simulated gi fluid, pH 1.2, 2 h
[4] = Stability of the compound in stimulated […] fluid at pH 6.8 measured after 12 hrs; assay type: ADME; conditions: simulated intestinal fluid, read-out: Stability
[5] = Stability of the compound in stimulated […] fluid at pH 6.8 measured after 8 hrs; assay type: ADME; conditions: simulated intestinal fluid, read-out: Stability
[6] = Stability of the compound in stimulated […] fluid at pH 1.2 measured after 12 hrs; assay type: ADME; conditions: simulated gi fluid, pH 1.2, 12 h
[7] = Stability of the compound in stimulated […] fluid at pH 6.8 measured after 1 min; assay type: ADME; conditions: simulated intestinal fluid, read-out: Stability
[8] = Stability of the compound in stimulated […] fluid at pH 6.8 measured after 4 hrs; assay type: ADME; conditions: simulated intestinal fluid, read-out: Stability
[9] = Stability of the compound in stimulated […] fluid at pH 1.2 measured after 1 min; assay type: ADME; conditions: simulated gi fluid, pH 1.2, 1 min
[10] = Stability of the compound in stimulated […] fluid at pH 6.8 measured after 2 hrs; assay type: ADME; conditions: simulated intestinal fluid, read-out: Stability
20S proteasome = experiment: Inhibition of human 20S proteasome chymotrypsin-like activity using Suc-Leu-Leu-Val-Tyr-AMC as fluorogenic peptide pre-incubated for 10 mins with compound followed by substrate addition for 60 mins by spectrofluorimetric analysis; assay type: protein-complex assay
[11] = Stability of the compound in stimulated […] fluid at pH 1.2 measured after 8 hrs; assay type: ADME; conditions: simulated gi fluid, pH 1.2, 8 h
[12] = Half life in dog liver microsomes at 1 uM incubated for 2 to 60 mins in presence of NADPH by LC-MS/MS analysis; assay type: ADME, Canis lupus familiaris, Microsome; conditions: time 2-60 min
[13] = AUC(0-t) in Sprague-Dawley rat at 1.2 mg/kg,IG measured upto 24 hrs by LC-MS/MS analysis; assay type: ADME, organism-based; parameters: dose 1.2 mg/kg, time < 24 hrs, route ig; conditions: in vivo, po
[14] = Intrinsic clearance in mouse liver microsomes at 1 uM incubated for 2 to 60 mins in presence of NADPH by LC-MS/MS analysis; assay type: ADME, Microsome; conditions: time 2-60 min, read-out: CLH
[15] = target: Voltage-gated inwardly rectifying potassium channel KCNH2 (Homo sapiens, UniProt Q12809); experiment: Inhibition of human ERG expressed in HEK293 cells; assay type: toxicity, cell-based
[16] = Half life in mouse liver microsomes at 1 uM incubated for 2 to 60 mins in presence of NADPH by LC-MS/MS analysis; assay type: ADME, Microsome; conditions: time 2-60 min
[17] = Half life in Sprague-Dawley rat at 1.2 mg/kg,IG measured upto 24 hrs by LC-MS/MS analysis; assay type: ADME, organism-based; conditions: in vivo, po
[18] = Toxicity in Balb/c mouse xenografted with human RPMI-8226 cells assessed as body weight loss at 6 mg/kg,po administrated biweekly for 21 days; assay type: organism-based; conditions: in vivo, 504 h, time 21 day
[19] = Half life in monkey liver microsomes at 1 uM incubated for 2 to 60 mins in presence of NADPH by LC-MS/MS analysis; assay type: ADME, Macaca mulatta, Microsome; conditions: rhesus monkey, time 2-60 min
RPMI-8226 [20] = experiment: Antitumor activity against human RPMI-8226 cells xenografted in Balb/c mouse assessed as tumor growth inhibition at po administration biweekly for 21 days; assay type: functional, organism-based; conditions: time 21.0 day
[21] = Half life in rat liver microsomes at 1 uM incubated for 2 to 60 mins in presence of NADPH by LC-MS/MS analysis; assay type: ADME, Microsome; conditions: time 2-60 min
[22] = Cmax in Sprague-Dawley rat at 1.2 mg/kg,IG measured upto 24 hrs by LC-MS/MS analysis; assay type: ADME, organism-based; parameters: time < 24 hrs, dose 1.2 mg/kg, route ig; conditions: in vivo, po
[23] = AUC (0-t) in Sprague-Dawley rat at 0.4 mg/kg,iv measured upto 24 hrs by LC-MS/MS analysis; assay type: ADME, organism-based; parameters: time < 24 hrs, dose 0.4 mg/kg, route iv; conditions: in vivo
[24] = Intrinsic clearance in human liver microsomes at 1 uM incubated for 2 to 60 mins in presence of NADPH by LC-MS/MS analysis; assay type: ADME, Microsome; conditions: time 2-60 min, read-out: CLH
[25] = Half life in Sprague-Dawley rat at 0.4 mg/kg,iv measured upto 24 hrs by LC-MS/MS analysis; assay type: ADME, organism-based; conditions: in vivo
[26] = Intrinsic clearance in dog liver microsomes at 1 uM incubated for 2 to 60 mins in presence of NADPH by LC-MS/MS analysis; assay type: ADME, Canis lupus familiaris, Microsome; conditions: time 2-60 min, read-out: CLH
[27] = Tmax in Sprague-Dawley rat at 1.2 mg/kg,IG measured upto 24 hrs by LC-MS/MS analysis; assay type: ADME, organism-based; conditions: in vivo, po
[28] = Half life in human liver microsomes at 1 uM incubated for 2 to 60 mins in presence of NADPH by LC-MS/MS analysis; assay type: ADME, Microsome; conditions: time 2-60 min
[29] = Intrinsic clearance in rat liver microsomes at 1 uM incubated for 2 to 60 mins in presence of NADPH by LC-MS/MS analysis; assay type: ADME, Microsome; conditions: time 2-60 min, read-out: CLH
[30] = Toxicity in Balb/c mouse xenografted with human RPMI-8226 cells assessed as body weight loss at 10 mg/kg,po administrated biweekly for 21 days; assay type: organism-based; conditions: in vivo, 504 h, time 21 day
[31] = Intrinsic clearance in monkey liver microsomes at 1 uM incubated for 2 to 60 mins in presence of NADPH by LC-MS/MS analysis; assay type: ADME, Macaca mulatta, Microsome; conditions: rhesus monkey, time 2-60 min, read-out: CLH
[32] = Oral bioavailability in Sprague-Dawley rat at 1.2 mg/kg measured upto 24 hrs by LC-MS/MS analysis; assay type: ADME, organism-based; conditions: in vivo

Chain of Voltage-gated inwardly rectifying potassium channel KCNH2 (Q12809 whole entry): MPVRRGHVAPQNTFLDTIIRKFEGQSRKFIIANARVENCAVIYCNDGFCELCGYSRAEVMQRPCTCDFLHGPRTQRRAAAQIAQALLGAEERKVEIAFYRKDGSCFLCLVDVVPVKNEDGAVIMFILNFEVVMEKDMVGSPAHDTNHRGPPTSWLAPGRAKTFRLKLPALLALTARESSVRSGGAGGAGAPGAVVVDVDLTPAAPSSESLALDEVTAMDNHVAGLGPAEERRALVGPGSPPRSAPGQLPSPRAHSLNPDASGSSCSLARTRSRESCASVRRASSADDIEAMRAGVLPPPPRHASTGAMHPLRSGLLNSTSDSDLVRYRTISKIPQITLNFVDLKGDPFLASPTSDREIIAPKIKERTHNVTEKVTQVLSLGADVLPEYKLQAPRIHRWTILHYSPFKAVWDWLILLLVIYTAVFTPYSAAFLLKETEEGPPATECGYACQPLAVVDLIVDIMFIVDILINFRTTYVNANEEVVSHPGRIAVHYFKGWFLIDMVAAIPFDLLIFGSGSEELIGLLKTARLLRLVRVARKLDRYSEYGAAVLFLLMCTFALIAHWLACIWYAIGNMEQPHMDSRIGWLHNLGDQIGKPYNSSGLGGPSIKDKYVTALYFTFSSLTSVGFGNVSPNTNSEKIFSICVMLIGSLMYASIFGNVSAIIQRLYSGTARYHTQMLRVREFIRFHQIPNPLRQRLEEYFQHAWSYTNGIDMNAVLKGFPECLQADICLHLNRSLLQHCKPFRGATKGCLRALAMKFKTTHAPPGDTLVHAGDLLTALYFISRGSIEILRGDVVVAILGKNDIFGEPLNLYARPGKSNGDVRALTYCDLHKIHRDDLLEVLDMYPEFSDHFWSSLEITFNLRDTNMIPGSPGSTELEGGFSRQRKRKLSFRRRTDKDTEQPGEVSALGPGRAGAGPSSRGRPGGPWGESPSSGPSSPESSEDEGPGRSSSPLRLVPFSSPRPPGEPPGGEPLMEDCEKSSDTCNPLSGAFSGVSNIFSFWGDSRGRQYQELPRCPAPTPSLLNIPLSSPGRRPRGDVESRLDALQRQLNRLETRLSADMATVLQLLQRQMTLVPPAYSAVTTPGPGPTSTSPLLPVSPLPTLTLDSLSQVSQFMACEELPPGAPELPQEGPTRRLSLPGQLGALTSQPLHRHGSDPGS

Compound: CC(C)C[C@H](NC(=O)CNC(=O)c1cc(Cl)ccc1Cl)B1OC2C3CC(C(=O)O)C(O3)C2O1 (stereo partly drawn)
- Stability [1]: 82.49%
- IC50 (RPMI-8226 [2]): 4.4 nM
- Stability [3]: 83.62%
- remaining at 12 h [4]: 19.9%
- remaining at 8 h [5]: 19.6%
- Stability [6]: 83.15%
- remaining at 1 min [7]: 21%
- remaining at 4 h [8]: 19.8%
- Stability [9]: 14.06%
- remaining at 2 h [10]: 23.9%
- IC50 (20S proteasome): 6.3 nM
- Stability [11]: 78.47%

Compound: CC(C)C[C@H](NC(=O)CNC(=O)c1cc(Cl)ccc1Cl)B1OC2C3OC(c4ccccc43)C2O1 (stereo partly drawn)
- Stability [1]: 50.68%
- IC50 (RPMI-8226 [2]): 6.9 nM
- Stability [3]: 35.35%
- remaining at 12 h [4]: 1.33%
- remaining at 8 h [5]: 1.35%
- Stability [6]: 48.53%
- remaining at 1 min [7]: 1.9%
- remaining at 4 h [8]: 1.18%
- Stability [9]: 19.33%
- remaining at 2 h [10]: 1.79%
- IC50 (20S proteasome): 7.7 nM
- Stability [11]: 52.71%

Compound: CC(C)C[C@H](NC(=O)C(CC1CC1)NC(=O)c1cc(C(F)(F)F)ccc1C(F)(F)F)B1OC2C3OC(CC3C(=O)O)C2(C)O1 (stereo partly drawn)
- Stability [1]: 58.25%
- half-life at 1 µM [12]: 72.9 min
- IC50 (RPMI-8226 [2]): 5.6 nM
- Stability [3]: 59.73%
- remaining at 12 h [4]: 6.77%
- AUC(0-t) at 24 h [13]: 2680 ng·h/mL
- microsomal CLint at 1 µM [14]: 49 µL/min/mg
- IC50 [15]: > 30000 nM
- remaining at 8 h [5]: 5.24%
- half-life at 1 µM [16]: 28.3 min
- Stability [6]: 59.68%
- remaining at 1 min [7]: 2.27%
- half-life [17]: 1800 min
- Activity [18]: Non-Toxic
- half-life at 1 µM [19]: 8.8 min
- Activity (RPMI-8226 [20]): Dose-Dependent Effect
- remaining at 4 h [8]: 3.98%
- half-life at 1 µM [21]: 25.2 min
- Cmax [22]: 174 ng/mL
- AUC(0-t) at 24 h [23]: 2270 ng·h/mL
- microsomal CLint at 1 µM [24]: 49 µL/min/mg
- half-life [25]: 1450 min
- Stability [9]: 6.44%
- microsomal CLint at 1 µM [26]: 19 µL/min/mg
- Tmax [27]: 49.8 min
- remaining at 2 h [10]: 3.55%
- half-life at 1 µM [28]: 28.3 min
- microsomal CLint at 1 µM [29]: 55 µL/min/mg
- Activity [30]: Non-Toxic
- IC50 (20S proteasome): 2.2 nM
- Stability [11]: 58.68%
- microsomal CLint at 1 µM [31]: 158 µL/min/mg
- bioavailability [32]: 34%

Compound: CC(C)C[C@H](NC(=O)CNC(=O)c1cc(F)ccc1F)B(O)O
- IC50 (RPMI-8226 [2]): 41.5 nM
- IC50 (20S proteasome): 20.6 nM

Compound: CC(C)C[C@H](NC(=O)CNC(=O)c1cc(Cl)ccc1Cl)B1OC2(C)CC3C(=O)NC(=O)C3CC2(C)O1 (stereo partly drawn)
- Stability [1]: 53.78%
- IC50 (RPMI-8226 [2]): 7.5 nM
- Stability [3]: 51.59%
- remaining at 12 h [4]: 7.27%
- remaining at 8 h [5]: 6.91%
- Stability [6]: 38.47%
- remaining at 1 min [7]: 5.4%
- remaining at 4 h [8]: 9.23%
- Stability [9]: 53.28%
- remaining at 2 h [10]: 7.58%
- IC50 (20S proteasome): 8.4 nM
- Stability [11]: 41.57%

Compound: Cc1cc(C(=O)NCC(=O)N[C@@H](CC(C)C)B(O)O)no1
- IC50 (20S proteasome): 124 nM

Compound: CC(C)C[C@H](NC(=O)C1(NC(=O)c2cc(C(F)(F)F)ccc2C(F)(F)F)CC1)B(O)O
- IC50 (20S proteasome): 86.7 nM

Compound: CC(C)C[C@H](NC(=O)C(NC(=O)c1cc(C(F)(F)F)ccc1C(F)(F)F)C1CCCC1)B(O)O (stereo partly drawn)
- IC50 (RPMI-8226 [2]): 6.9 nM
- IC50 (20S proteasome): 6 nM

Compound: CC(C)C[C@H](NC(=O)CNC(=O)c1cc(Cl)ccc1Cl)B1OC2C3OC(C4C(=O)NC(=O)C34)C2(C)O1 (stereo partly drawn)
- Stability [1]: 70.5%
- IC50 (RPMI-8226 [2]): 6.8 nM
- Stability [3]: 67.8%
- remaining at 12 h [4]: 10.8%
- remaining at 8 h [5]: 13.5%
- Stability [6]: 66.9%
- remaining at 1 min [7]: 15%
- remaining at 4 h [8]: 11.4%
- Stability [9]: 70.91%
- remaining at 2 h [10]: 11.4%
- IC50 (20S proteasome): 22.4 nM
- Stability [11]: 66.14%

Compound: CC(C)C[C@H](NC(=O)C1(NC(=O)c2cc(C(F)(F)F)ccc2C(F)(F)F)CCCC1)B(O)O
- IC50 (20S proteasome): 285 nM
